Among the data in PubChem BioAssay (NCI) are GI50 and TGI values, retold here.

Molecules are shown by their SMILES.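 All cell lines were grown in 96-well plates and treated with compound for 48 hours. Abbreviation: GI50, concentration required for 50% inhibition of growth. Definition used: TGI = concentration required for complete inhibition of growth.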 Some results are limits rather than exact numbers.

What all share (assay): NCI anticancer screen, dose series, 48 h
In assay [1] the test system is SNB-75 CNS.
Assay [2] has as its system MCF7 breast.
Assay [3] relates to MOLT-4 leukemia.
For assay [4], the system named is CAKI-1 renal.
Assay [5] has as its system SK-OV-3 ovarian.
In assay [6] the test system is NCI-H226 lung.
In assay [7] the test system is SK-MEL-5 melanoma.
Assay [8] relates to K-562 leukemia.

Take `CC1(C)N=C(N)N=C(N)N1c1ccc(OCCCCNC(=O)c2ccc(S(=O)(=O)F)cc2)c(Cl)c1`: the GI50 is 16.5 µM in assay [1]; 3.9 µM in assay [2]; 21.3 µM in assay [3]; 43.8 µM in assay [4]; over 100 µM in assay [5]; 76 µM in assay [6]. In addition, the GI50 was 5.19 µM in assay [7] and 0.562 µM in assay [8]. Also, the TGI in assay [1], in assay [2], in assay [3], in assay [4], in assay [5] and in assay [6] was over 100 µM each time. Besides, the TGI in assay [7] and in assay [8] was over 100 µM throughout.
Take `C[C@H]1CCC/C=C/[C@@H]2C[C@H](O)C[C@H]2[C@H](O)[C@@H](SC2OC(CO)C(O)C(O)C2O)CC(=O)O1` (stereo partly drawn): the GI50 in assay [1] is 53.2 µM; in assay [2] it was 35.1 µM; in assay [3] it was over 100 µM; in assay [4] it was over 100 µM; in assay [5] it was over 100 µM; in assay [6], 36.2 µM. Moreover, the figures for the GI50 in assay [7] and in assay [8] were 16.2 µM and over 100 µM, respectively. For the same molecule, the TGI in assay [1], in assay [2], in assay [3], in assay [4], in assay [5] and in assay [6] was over 100 µM throughout. In addition, the TGI is 30 µM in assay [7] and over 100 µM in assay [8].
Turning to `Cn1c(O)c(N=NC(N)=S)c2ccccc21`, the GI50 in assay [1] was 18.3 µM; in assay [2], 20.3 µM; in assay [3], over 100 µM; in assay [4] it was 23.6 µM; in assay [5], 66.8 µM; in assay [6], over 100 µM. The GI50 in assay [7] was 38.1 µM; in assay [8], 95.2 µM. Moreover, the TGI in assay [1] is 98 µM; in assay [2], over 100 µM; in assay [3], over 100 µM; in assay [4], 91.7 µM; in assay [5] it was over 100 µM; in assay [6] it was over 100 µM. The TGI in assay [7] and in assay [8] was over 100 µM throughout.
Consider `O=c1[nH]cnc2nc(-c3ccc(N(CCCl)CCCl)cc3)[nH]c12`, for which the GI50 in assay [1] was 18.1 µM; in assay [2], over 100 µM; in assay [3] it was over 100 µM; in assay [4], 4.25 µM; in assay [5] it was 5.17 µM; in assay [6] it was 7.13 µM. The figures for the GI50 in assay [7] and in assay [8] were 3.47 µM and 1.9 µM, respectively. Also, the TGI was 74.2 µM in assay [1]; over 100 µM in assay [2]; over 100 µM in assay [3]; over 100 µM in assay [4]; 42.8 µM in assay [5]; 80.6 µM in assay [6]. In addition, the TGI in assay [7] and in assay [8] was over 100 µM in each case.
In the case of `O=C(Nc1ccccc1C(=O)Nc1nccs1)c1ccccc1`, the TGI in assay [1], in assay [2], in assay [3], in assay [4], in assay [5] and in assay [6] was over 100 µM in each case. Moreover, the TGI was 67.3 µM in assay [7] and over 100 µM in assay [8].
Regarding `CCC1CCC2c3c([nH]c4ccccc34)C3C(=O)N(c4ccc(OC)cc4)C(=O)C3C2C1` (stereo not drawn), the TGI in assay [1] is 41.1 µM; in assay [2] it was over 100 µM; in assay [3], 32.5 µM; in assay [5] it was over 100 µM; in assay [6], over 100 µM; in assay [7] it was over 100 µM. Moreover, in assay [8], the TGI turned out to be 60.8 µM.
Take `COc1cc(CC2CC(c3ccc4c(c3)OCO4)OC2=O)cc(OC)c1OC` (stereo not drawn): the TGI in assay [1], in assay [2], in assay [3], in assay [4], in assay [5] and in assay [6] was over 100 µM each time. The TGI in assay [7] and in assay [8] was over 100 µM each time.
With `C[C@]12CC[C@H]3[C@@H](CCC4=C[C@@H](OC5OCC(OC6OC(CO)C(O)C(O)C6O)C(O)C5O)CC[C@@]43C=O)[C@@]1(O)CCC2C1=CC(=O)OC1` (stereo partly drawn), the TGI in assay [1] is 12.8 µM; in assay [2], over 100 µM; in assay [3], 0.346 µM; in assay [4], 1.62 µM; in assay [5], 3.75 µM; in assay [6], 5.79 µM. Moreover, the TGI in assay [8] came to 3.38 µM.
Consider `CCC(=O)OC1=CN2C(=NC(c3ccc(N)cc3)=CC2c2cc(OC)c(OC)c(OC)c2)S1` (stereo not drawn), for which the GI50 in assay [1] is 5.12 µM; in assay [2] it was 2.86 µM; in assay [3], 3.89 µM; in assay [4], 2.91 µM; in assay [5], 3.45 µM; in assay [6], 7.47 µM. The results for the GI50 in assay [7] and in assay [8] were 2.89 µM and 3.47 µM, respectively. The TGI in assay [1] is 23.3 µM; in assay [2], 14.4 µM; in assay [3], 64.7 µM; in assay [4], 11.2 µM; in assay [5], 13 µM; in assay [6], over 100 µM. For the same molecule, the TGI in assay [7] is 12 µM; in assay [8], over 100 µM.
As for `CC(C)N(Cc1ccccc1)S(=O)(=O)c1n[nH]c(C(C)(C)C)n1`, the TGI in assay [1], in assay [2], in assay [4], in assay [5], in assay [6] and in assay [7] was over 100 µM each time. This molecule gave a TGI in assay [8] of over 100 µM.
For the molecule `COc1ccc(S(=O)(=O)n2c3ccccc3n3ncc(-c4nnc(C)o4)c23)cc1`, the GI50 in assay [1] is 0.211 µM; in assay [2], 0.397 µM; in assay [3], 0.502 µM; in assay [4], 0.449 µM; in assay [5] it was 0.598 µM; in assay [6], 10.8 µM. Also, the GI50 in assay [7] was 0.401 µM; in assay [8], 0.314 µM. The TGI in assay [1] is 0.937 µM; in assay [2], over 69.8 µM; in assay [3], over 100 µM; in assay [4], over 100 µM; in assay [5] it was over 100 µM; in assay [6], over 69.2 µM. The TGI in assay [7] was 15 µM; in assay [8] it was over 100 µM.
